Results as given in publication PMC7822874, “Chemoprotective antimalarials identified through quantitative high-throughput screening of Plasmodium blood and liver stage parasites” (Scientific Reports, 2021).
Like-named read-outs stand apart in the source and are kept apart here.

Columns and labels:
[1] = test system: Plasmodium falciparum Dd2 asexual blood stage parasites; experiment: microbe, parasite or virus in culture; design: species or system Plasmodium falciparum Dd2 in human erythrocytes; single determination (one 11-point concentration-response curve); settings: Plasmodium falciparum, DD2, Erythrocyte, 72 h
in vitro = settings: human; for viability at 48 h / viability at 48 h, 1 µM / viability at 66 h / viability at 48 h, 3 µM: HepG2-A16-CD81EGFP cells, uninfected

| SMILES | AC50 ([1]; read-out: AC50) | viability at 48 h, 1 µM (in vitro) | viability at 48 h, 3 µM (in vitro) | further results |
| --- | --- | --- | --- | --- |
| Cc1cccc(NC(=O)Cn2c(C)c(C#N)c3ccccc32)c1C [MLS000030212-01] | 5960 nM | 99.9% | – | viability at 48 h (in vitro): 99.9% |
| Cc1cc(C)cc(N(CC(=O)NCc2ccc3c(c2)OCO3)C(=O)CCC(=O)Nc2ccccn2)c1 [MLS000032464-01] | 4220 nM | – | – | viability at 66 h (in vitro): 96.4% |
| O=C(Nc1ccc(N2CCCCC2)c(Cl)c1)c1nnc[nH]1 [MLS000035389-01] | 4730 nM | 101% | 99% | – |
| C=CCOC(=O)C(C#N)c1nc2ccccc2nc1N1CCC(C(=O)OCC)CC1 (centres unmarked) [MLS000036470-01] | 2370 nM | 108% | 100% | – |
| COc1cccc(Cn2c(Oc3ccccc3)nc3c2c(=O)n(C)c(=O)n3C)c1 [MLS000038011-01] | 4730 nM | 107% | 98% | – |
| CCOC(=O)c1cn(CC)c2cc(N3CCSCC3)c(F)cc2c1=O [MLS000038775-01] | 1680 nM | 89% | 85% | – |
| Clc1ccc(-c2nnc(N3CCCC3)nn2)cc1 [MLS000038815-01] | 531 nM | – | – | viability at 66 h (in vitro): 102% |
| CCc1nc(Nc2ccc3nccnc3c2)c2oc3ccccc3c2n1 [MLS000041713-01] | 2370 nM | 104% | 95% | – |
| CCN1CCCC1CNc1ncnc2c1[nH]c1ccc(Cl)cc12 (centres unmarked) [MLS000041736-01] | – | 98.5% | – | AC50 [1]: 2990 nM; viability at 48 h (in vitro): 98.5% |
| Oc1ccc(C2NCc3ccccc3-n3cccc32)cc1Cl (centres unmarked) [MLS000047999-01] | 1500 nM | 99% | 90% | – |
| CCC(C)c1ccc(O)c(NC(=O)c2cncc(Br)c2)c1 (centres unmarked) [MLS000062368-01] | 2990 nM | 113% | 103% | – |
| Cc1cc(C(C)c2ccccc2)c(O)c(CN2CCOCC2)c1C (centres unmarked) [MLS000064176-01] | 2990 nM | 108% | – | viability at 48 h (in vitro): 108% |
| COc1ccc(CNCc2cc3c(C(C)(C)C)nn(-c4ccccc4)c3[nH]c2=O)cc1 [MLS000067276-01] | 841 nM | 103% | 109% | – |
| CN(C)c1cc[n+](Cc2ccccc2)cc1 [MLS000070144-01] | 10600 nM | – | – | viability at 66 h (in vitro): 96.5% |
| CC1(C)Cc2c(c(N3CCOCC3)nc3snc(Br)c23)CO1 [MLS000071231-01] | 299 nM | 87% | 86% | – |
| Oc1c2c(nc3ccc(Br)cc13)CCCC2 [MLS000074180-01] | 6680 nM | 100% | 98% | – |
| CCCCN(C(=O)c1ccco1)c1nnc(-c2cc(OC)c(OC)c(OC)c2)s1 [MLS000075381-01] | 2990 nM | – | – | viability at 66 h (in vitro): 104% |
| Cc1cc(Nc2ccc3ccccc3c2)n2ncnc2n1 [MLS000077665-01] | 596 nM | 88% | 86% | – |
| CCCCn1c2c(c(=N)c3c1CCC3)CCC2 [MLS000080126-01] | 8410 nM | 111% | 80% | – |
| COc1ccc2c(c1)C1(Nc3ccccc3-c3nc4ccccc4n31)C(=O)N2 (centres unmarked) [MLS000080605-01] | 596 nM | 99% | 104% | – |

| SMILES | AC50 ([1]; read-out: AC50) | viability at 48 h, 1 µM (in vitro) | viability at 48 h, 3 µM (in vitro) | further results |
| --- | --- | --- | --- | --- |
| CCCc1cc(=O)oc2c(C)c(O)c(CN3CCCCC3)cc12 [MLS000081526-01] | 3350 nM | – | – | viability at 66 h (in vitro): 104% |
| Cc1c(O)c(CN2CCCC2)cc2c1oc(=O)c1ccccc12 [MLS000081529-01] | 2660 nM | 108% | 102% | – |
| CC(C)(C)c1ccc(O)c(CN2CCN(c3ccccc3)CC2)c1 [MLS000084717-01] | – | – | – | AC50 [1]: 1500 nM; viability (in vitro): 98.2% |
| Cc1cc(N2CCN(C)CC2)nc2ccc(NC(=O)c3ccc(Br)o3)cc12 [MLS000086536-01] | 6680 nM | 104% | 104% | – |
| COc1ccc(N2/C(=C/C(C)=O)NC(=O)c3c(C)cc(C)nc32)cc1 [MLS000088720-01] | 3350 nM | – | – | viability at 66 h (in vitro): 103% |
| CCOC(=O)c1nnn(-c2nonc2-n2cccc2)c1CN1CCCCC1 [MLS000090434-01] | 7500 nM | 102% | 100% | – |
| CCOC(=O)CC(=O)CSc1nc2ccccc2c(=O)n1-c1ccc(C(=O)N2CCOCC2)cc1 [MLS000095558-01] | 13300 nM | 87% | 87% | – |
| CCCn1cc(SCC(=O)NCc2ccco2)c2ccccc21 [MLS000095681-01] | 8410 nM | 90% | 87% | – |
| Cc1ccc(-n2c(C)cc(C(=O)OCC(=O)N(C)C3CCS(=O)(=O)C3)c2C)cc1 (centres unmarked) [MLS000098265-01] | 4730 nM | – | – | viability at 66 h (in vitro): 101% |
| O=C1C2=C(Nc3ccccc3SC2c2ccco2)c2ccccc21 (centres unmarked) [MLS000108310-01] | 4730 nM | 110% | 99% | – |
| Cc1c(C#N)c2ccccc2n1CCOc1ccccc1F [MLS000113080-01] | 1680 nM | 100% | 97% | – |
| CC(C)Cc1cc(C(=O)Nc2cc(Br)ccc2O)no1 [MLS000116399-01] | 4730 nM | 120% | 110% | – |
| Cc1cc(C)cc(Nc2cc(C)nc3nc(C)nn23)c1 [MLS000116612-01] | 5310 nM | 112% | – | viability at 48 h (in vitro): 112% |
| Cc1cc(N2CCN(C3CCCCC3)CC2)nc2cccc(O)c12 [MLS000118317-01] | 5310 nM | 104% | 105% | – |
| COc1ccc(CNCC(O)(c2ccc(Cl)cc2)c2ccc(Cl)cc2)cc1 [MLS000325709-01] | 1500 nM | 98% | 96% | – |
| O=C(Nc1c(C(=O)c2ccccc2)oc2ccccc12)c1cc(-c2ccccc2O)n[nH]1 [MLS000331861-01] | 2110 nM | 100% | 99% | – |
| COc1cccc(OC)c1C(=O)NC(S)=Nc1ccc2c(c1)C(=O)N(C)C2=O [MLS000331897-01] | 944 nM | – | – | viability at 66 h (in vitro): 103% |
| CCn1c(SCC(=O)NCCc2ccccc2)nc2sc3c(c2c1=O)CCN(C)C3 [MLS000332196-01] | 5310 nM | 96% | 87% | – |
| COc1ccc(NC(C)C(=O)Nc2cc(C(F)(F)F)ccc2N2CCOCC2)c(OC)c1 (centres unmarked) [MLS000334848-01] | 841 nM | 100% | 91% | – |
| Cc1ccccc1NC(=O)c1cc(C(=O)c2cc(Cl)ccc2O)cn(-c2ccccc2C)c1=O [MLS000374594-01] | 376 nM | 98% | 93% | – |

| SMILES | AC50 ([1]; read-out: AC50) | viability at 48 h, 1 µM (in vitro) | viability at 48 h, 3 µM (in vitro) | further results |
| --- | --- | --- | --- | --- |
| Cc1cccc(NC2=C(NC(=O)c3ccccc3)C(=O)c3ccccc3C2=O)c1 [MLS000392330-01] | 944 nM | 98% | 95% | – |
| Cc1cccc(Cl)c1/N=C(\S)N1CCN(c2ccc([N+](=O)[O-])cn2)CC1 [MLS000833563-01] | – | 95% | 93% | – |
| OC(CNCCNc1ncccc1C(F)(F)F)Cn1ccc2ccccc21 (centres unmarked) [MLS000833573-01] | – | 106% | 96% | – |
| CCOC(=O)N1CCc2c(sc3nc4n(c(=O)c23)N=C(c2ccc(OC)cc2)CS4)C1 [MLS000859689-01] | – | 99% | 96% | – |
| O=C(C[n+]1cc(-c2ccccc2)n2c1CCC2)c1cccs1 [MLS001003812-01] | – | 94% | 86% | – |
| COc1ccc(C(=O)C[n+]2ccc(N(C)C)cc2)cc1 [MLS001044390-01] | – | – | – | viability at 66 h (in vitro): 100% |
| COc1ccc(CCn2c(=N)c(C(=O)NC3CCCCC3)cc3c(=O)n4ccccc4nc32)cc1 [MLS001146200-01] | – | 102% | 98% | – |
| Cc1cccc(NC(=O)c2cc(S(=O)(=O)N(C)c3ccc(F)cc3)ccc2Cl)n1 [MLS001160863-01] | – | 97% | 92% | – |
| CCOc1cc(CN2CCCC(N3CCN(c4ccc(F)cc4)CC3)C2)ccc1OC (centres unmarked) [MLS001162894-01] | – | 114% | 103% | – |
| Clc1cccc(CN2CCc3c([nH]c4ccccc34)C2)c1Cl [MLS001164092-01] | – | 104% | – | viability at 48 h (in vitro): 104% |
| C=C(C)CSc1nc2sc3c(c2c(=O)n1-c1ccc(OC)cc1)CCN(C)C3 [MLS001173660-01] | – | 106% | 105% | – |
| Cc1ccc2[nH]c(C(=O)Nc3ccc(F)cc3)cc2c1 [MLS001183414-01] | – | – | – | viability at 66 h (in vitro): 99.7% |
| Cc1ccc2nc3c(c(Nc4ccc(O)cc4)c2c1)CCC3 [MLS001196969-01] | – | 99% | 99% | – |
| COc1ccc2cc3cc(C(=O)NCCC(C)C)oc3nc2c1 [MLS001199461-01] | – | 101% | 101% | – |
| CCc1cc(C(=O)c2ccccc2)c(N)s1 [MLS001211275-01] | – | – | – | viability at 66 h (in vitro): 107% |
| COC(CSc1nc(N)c2c3c(sc2n1)CN(C)CC3)OC [MLS001215130-01] | – | – | – | viability at 66 h (in vitro): 97.5% |
| CCSc1nnc(SCC(=O)c2c(N)n(C)c(=O)n(C)c2=O)s1 [MLS002169255-01] | – | 93% | 88% | – |
| CN(C(=O)c1ccc(NC(=O)Cc2cccc(NC(=O)C3CCCN(C(=O)CCc4ccccc4)C3)c2)cc1)C1CCCC1 (centres unmarked) [MLS002402746-01] | – | 104% | – | viability at 48 h (in vitro): 104% |
| CCCCN(C)[S+](=O)([O-])c1ccc(C(=O)Nc2ccc(-c3nc4ccc(C)cc4s3)cc2)cc1 [NCGC00134689-01] | – | – | – | viability at 66 h (in vitro): 103% |
| COc1ccccc1NC(=O)Cn1c(C)ccc(N[S+](=O)([O-])c2ccccc2)c1=O [NCGC00430868-01] | – | – | – | viability at 66 h (in vitro): 109% |
